Data: publication PMC8551967 (Frontiers in Microbiology, 2021)
Non-standard residues stand in square brackets, D forms with d. Residues, ends and D or L forms follow the SMILES beside them. *: point of attachment. Leu(ol) = CC(C)C[C@H](N)CO; Octanoyl = CCCCCCCC(=O)*; Aib = CC(C)(N)C(=O)O

Experiments:
[1] = system: Pyricularia oryzae IT10 strain on barley leaves (cv. Alora); conditions: in vivo
[2] = system: Pyricularia oryzae IT10 strain on rice (cv. Vialone Nano); conditions: in vivo
[3] = system: P. oryzae (IT10 strain) conidia; format: cell-based, Pyricularia oryzae
[4] = system: Pyricularia oryzae (strains AP, Guy11, I203 and IT10); conditions: for inhibition of fungal growth compared to the untreated control: 96 h, 50 μM, pH 6.85
P. oryzae AP strain = format: cell-based, Pyricularia oryzae
P. oryzae Guy11 strain = format: cell-based, Pyricularia oryzae
P. oryzae I203 strain = format: cell-based, Pyricularia oryzae
P. oryzae IT10 strain = format: cell-based, Pyricularia oryzae
P. oryzae conidia = format: cell-based, Pyricularia oryzae; conditions: pH 7

| Molecule | reduction of blast lesion area in comparison with untreated barley leaves [1] | significance of lesion inhibition compared to the Control [1] | reduction in Disease Severity Index (DSI) [2] | morphology and germination of treated conidia [3] | inhibition of fungal growth compared to the untreated control [4] | inhibition of fungal growth (in words) [4] | further results |
| --- | --- | --- | --- | --- | --- | --- | --- |
| CCCCCCCC(=O)NC(C)(C)C(=O)NCC(=O)N[C@@H](CC(C)C)C(=O)NC(C)(C)C(=O)N[C@@H](CCCCN)C(=O)N[C@@H](CCCCN)C(=O)N[C@@H](CC(C)C)C(=O)NC(C)(C)C(=O)NCC(=O)N[C@H](C(=O)N[C@H](CO)CC(C)C)[C@@H](C)CC [Pep 4] | higher than 95% | Significant inhibition | 65-70% | important morphological changes | more than 90% | – | – |
| Palmitoyl-His-Ala-Ala-His-Lys(ε-Ser)-Gly-COOH [Pep 19] | – | – | – | germinated normally and did not show any morphological alteration | – | relatively little or no inhibition against one or two strains | inhibition of AP strain (in words) (P. oryzae AP strain): did not inhibit; inhibition of Guy11 strain (in words) (P. oryzae Guy11 strain): did not inhibit; inhibition of I203 strain (in words) (P. oryzae I203 strain): did not inhibit; inhibition of IT10 strain (in words) (P. oryzae IT10 strain): partially inhibited |
| nOct-Aib—Lys-Lys-Leu-Aib-Gly-Ile-Leu-NH2 [Pep 4C2] | about 75% | Significant inhibition | 65-70% | – | – | relatively little or no inhibition against one or two strains | representative lesions on rice leaves (in words) [2]: reduced lesions |
| nOct-Aib-Gly-Leu-Aib-Gly-Gly-Leu-Aib-Gly-Ile-Lol [Trichogin, Trichogin GA IV, reference compound] | ineffective | – | – | – | – | – | activity of trichogin against P. oryzae in vitro [4]: ineffective |
| nOct-Aib-Gly-Leu-Aib-Lys-Lys-Leu—Leu-NH2 [Pep 4C1] | ineffective | – | – | – | – | relatively little or no inhibition against one or two strains | – |
| nOct-Aib-Lys-Leu-Aib-Gly-Lys-Leu-Aib-Gly-Ile-Lol [Pep 7] | higher than 95% | Significant inhibition | 65-70% | – | – | relatively little or no inhibition against one or two strains | – |
| H-FKR[Aib]KK[Aib]FKK[Aib]WNWK-NH2 [Pep 12] | – | – | – | – | – | relatively little or no inhibition against one or two strains | – |
| nOct-Aib-Gly-Leu-Aib-Lys-Aib-Leu-Aib-Gly-Ile-Lol [Pep 6] | – | – | – | germinated normally and did not show any morphological alteration | – | – | mycelium growth in the presence of the peptide versus untreated control (P. oryzae conidia): grew better than the untreated control |
| nOct-Aib-Gly-Leu-Aib-Gly-Lys-Leu-Aib-Gly-Ile-Lol [Pep 22] | ineffective | – | – | – | – | relatively little or no inhibition against one or two strains | – |
| CCCCCCCC(=O)NC(C)(C)C(=O)N[C@@H](CCCCN)C(=O)N[C@@H](CC(C)C)C(=O)NC(C)(C)C(=O)NCC(=O)NCC(=O)N[C@@H](CC(C)C)C(=O)NC(C)(C)C(=O)NCC(=O)N[C@H](C(=O)N[C@H](CO)CC(C)C)[C@@H](C)CC [Pep 2] (Octanoyl-[Aib]KL[Aib]GGL[Aib]GI[Leu(ol)]) | ineffective | – | – | important morphological changes | more than 90% | – | – |
| CCCCCCCC(=O)NC(C)(C)C(=O)N[C@@H](CCCCN)C(=O)N[C@@H](CC(C)C)C(=O)NC(C)(C)C(=O)NCC(=O)NCC(=O)N[C@@H](CC(C)C)C(=O)NC(C)(C)C(=O)NCC(=O)N[C@H](C(=O)N[C@@H](CC(C)C)C(N)=O)[C@@H](C)CC [Pep 2Rink] (Octanoyl-[Aib]KL[Aib]GGL[Aib]GIL-NH2) | about 92% | Significant inhibition | 65-70% | – | more than 90% | – | representative lesions on barley leaves (in words) [1]: Almost no lesions; representative lesions on rice leaves (in words) [2]: reduced lesions |
| CCCCCCCC(=O)NC(C)(C)C(=O)N[C@@H](CCCCN)C(=O)N[C@@H](CCCCN)C(=O)N[C@@H](CC(C)C)C(=O)NC(C)(C)C(=O)NCC(=O)N[C@H](C(=O)N[C@H](CO)CC(C)C)[C@@H](C)CC [Pep 4C] (Octanoyl-[Aib]KKL[Aib]GI[Leu(ol)]) | ~70% | Significant inhibition | – | important morphological changes | more than 90% | – | – |
| CCCCCCCC(=O)NC(C)(C)C(=O)N[C@@H](CCCCN)C(=O)N[C@@H](CC(C)C)C(=O)NC(C)(C)C(=O)N[C@@H](CCCCN)C(=O)NCC(=O)N[C@@H](CC(C)C)C(=O)NC(C)(C)C(=O)N[C@@H](CCCCN)C(=O)N[C@H](C(=O)N[C@H](CO)CC(C)C)[C@@H](C)CC [Pep 5] (Octanoyl-[Aib]KL[Aib]KGL[Aib]KI[Leu(ol)]) | higher than 95% | Significant inhibition | 65-70% | important morphological changes | more than 90% | – | representative lesions on rice leaves (in words) [2]: reduced lesions |
| nOct-Aib-Gly-Leu-Aib-Gly-Gly-Leu-Api-Gly-Ile-Lol [Pep 8Api] | higher than 95% | Significant inhibition | 50-55% | important morphological changes | – | relatively little or no inhibition against one or two strains | – |
| nOct-Aib-Gly-Leu-Aib-Lys-Gly-Leu-Aib-Gly-Ile-Lol [Pep 3] | – | – | inefficacy | – | – | – | – |
